According to BindingDB's records for doi:10.1016/j.bmcl.2015.05.018 (Martin-Luther-University Halle-Wittenberg, 2015):

How the values were obtained:
[1] = Inhibition of human P-gp expressed in mouse T-cell lymphoma assessed as potentiation of daunorubicin-induced cellular toxicity by measuring daunorubicin IC50 at 10 uM by MTT assay (Rvb = 8.26 +/- 0.62 uM)
[2] = Inhibition of human P-gp expressed in mouse T-cell lymphoma assessed as potentiation of daunorubicin-induced cellular toxicity by measuring daunorubicin IC50 at 5 uM by MTT assay (Rvb = 8.26 +/- 0.62 uM)

Row | SMILES | IC50 [1] [nM] | IC50 [2] [nM]
1 | CCOC(=O)C1=CN(Cc2ccccc2)c2ccccc2C1c1cccc(OC)c1 (stereo not drawn) | 860 | 
2 | CCOC(=O)C1=CN(Cc2ccccc2)c2ccccc2C1c1ccc(OC)c(OC)c1 (stereo not drawn) | 390 | 4760
